# Laboratory results from patent publication US20060199816A1, “Aryl sulfonyl piperidines” (priority 2005, published 2006).
# pIC50: −log10 of the molar value.
# Molecular target: human HSD1 (Homo sapiens, UniProt P28845)
# Test: in vitro inhibition of 11β-HSD1 (cortisone to cortisol conversion, time-resolved fluorescence)
# Format: biochemical
# Conditions: purified human HSD1, cortisone substrate, NADPH, 30 min incubation, time-resolved fluorescence readout; read-out: hHSD1 IC50
# Description: Purified human HSD1 was diluted in 50 mM Tris-HCl, 100 mM NaCl, 0.1 mg/ml BSA, 0.02% Lubrol, 20 mM MgCl2, 10 mM glucose 6-phosphate, 0.4 mM NADPH, 60 U/ml glucose 6-phosphate dehydrogenase to a concentration of 1.5 ug/ml (Enzyme Solution). Cortisone (100 uM) in DMSO was diluted to 1 uM with 50 mM Tris-HCl, 100 mM NaCl (Substrate Solution). Testing compounds (40 uM) in DMSO was diluted 3 fold in series in DMSO and further diluted 20 fold in Substrate Solution. Enzyme Solution (10 ul/well) was added into 384 well microtiter plates followed by diluted compound solutions (10 ul/well) and mixed well. Samples were then incubated at […] for 30 min. EDTA/biotin-cortisol solution (10 ul/well) in 28 mM EDTA, 100 nM biotin-cortisol, 50 mM Tris-HCl, 100 mM NaCl was then added followed by 5 ul/well of anti-cortisol antibody (3.2 ug/ml) in 50 mM Tris-HCl, 100 mM NaCl, 0.1 mg/ml BSA and the solution was incubated at 37 degrees for 30 min. Five ul per well of Eu-conjugated anti-mouse IgG (16 nM) and APC-conjugated streptavidin (160 nM) in 50 mM Tris-HCl, 100 mM NaCl, 0.1 mg/ml BSA was added and the solution was incubated at room temperature for 2 hours. Signals were quantitated by reading time-resolved fluorescence on a Victor 5 reader (Wallac).
# Percent inhibition of HSD1 activity by an agent at various concentrations was calculated by the formula % Inhibition=100*[1−(Fs−Fb)/(Ft−Fb)], where: • Fs is the fluorescence signal of the sample which included the agent, • Fb is the fluorescence signal in the absence of HSD1 and agent, • Ft is the fluorescence signal in the presence of HSD1, but no agent.
# The inhibitory activities of test compounds were determined by the IC50s, or the concentration of compound that gave 50% inhibition.
# Chain of human HSD1 (P28845 whole entry): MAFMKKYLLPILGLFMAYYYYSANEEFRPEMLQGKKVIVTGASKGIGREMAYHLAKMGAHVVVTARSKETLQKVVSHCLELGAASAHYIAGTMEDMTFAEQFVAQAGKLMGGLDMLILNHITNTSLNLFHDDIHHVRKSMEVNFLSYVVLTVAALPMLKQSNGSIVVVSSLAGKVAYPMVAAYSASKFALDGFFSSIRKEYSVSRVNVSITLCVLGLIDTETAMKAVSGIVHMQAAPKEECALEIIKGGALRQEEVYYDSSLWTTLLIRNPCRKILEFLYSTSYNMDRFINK
row,Structure (SMILES),pIC50
1,"CC(C)CCNC(=O)[C@@H]1CCCN(S(=O)(=O)c2ccccc2Cl)C1 [Example 2, (3R)-1-(2-Chloro-benzenesulfonyl)-piperidine-3-carboxylic acid (3-methyl-butyl)-amide]",6.54
2,"O=C(NCc1cccc2ccccc12)C1CCCN(S(=O)(=O)c2ccccc2Cl)C1 (stereo not drawn) [Example 43, 1-(2-Chloro-benzenesulfonyl)-piperidine-3-carboxylic acid (naphthalen-1-ylmethyl)-amide]",7.60
3,CC(CNC(=O)C1CCCN(S(=O)(=O)c2ccccc2Cl)C1)c1ccccc1 (stereo not drawn) [Example 50],7.51
4,"O=C(NC1CCCCC1)C1CCCN(S(=O)(=O)c2ccc3ccccc3c2)C1 (stereo not drawn) [Example 73, 1-(Naphthalene-2-sulfonyl)-piperidine-3-carboxylic acid cyclohexylamide]",7.33
5,"Cc1c(Cl)cccc1S(=O)(=O)N1CCCC(C(=O)NCCCc2ccccc2)C1 (stereo not drawn) [Example 80, 1-(3-Chloro-2-methyl-benzenesulfonyl)-piperidine-3-carboxylic acid (3-phenyl-propyl)-amide]",4.92

# Results, then the compound that gave them:
row,pIC50,Structure (SMILES)
1,5.52,"Cc1ccccc1CNC(=O)C1CCCN(S(=O)(=O)c2ccc(F)cc2)C1 (stereo not drawn) [Example 128, 1-(4-Fluoro-benzenesulfonyl)-piperidine-3-carboxylic acid 2-methyl-benzylamide]"
2,6.41,"CC(C)c1ccc(S(=O)(=O)N2CCCC(C(=O)NC3CCCCC3)C2)cc1 (stereo not drawn) [Example 135, 1-(4-Isopropyl-benzenesulfonyl)-piperidine-3-carboxylic acid cyclohexylamide]"
3,6.04,"O=C(NCCc1cccc(Cl)c1)C1CCCN(S(=O)(=O)c2cccc3cccnc23)C1 (stereo not drawn) [Example 157, 1-(Quinoline-8-sulfonyl)-piperidine-3-carboxylic acid [2-(3-chloro-phenyl)-ethyl]-amide]"
4,6.41,"O=C(NC1CCc2ccccc21)C1CCCN(S(=O)(=O)c2ccccc2)C1 (stereo not drawn) [Example 169, 1-Benzenesulfonyl-piperidine-3-carboxylic acid indan-1-ylamide]"
5,6.03,"CCC(COC)NC(=O)C1CCCN(S(=O)(=O)c2ccccc2)C1 (stereo not drawn) [Example 173, 1-Benzenesulfonyl-piperidine-3-carboxylic acid (1-methoxymethyl-propyl)-amide]"
6,5.52,"Cc1ccccc1CNC(=O)C1CCCN(S(=O)(=O)c2ccccc2)C1 (stereo not drawn) [Example 175, 1-Benzenesulfonyl-piperidine-3-carboxylic acid 2-methyl-benzylamide]"
7,6.72,"O=C(NC1CCCc2ccccc21)C1CCCN(S(=O)(=O)c2cccs2)C1 (stereo not drawn) [Example 187, 1-(Thiophene-2-sulfonyl)-piperidine-3-carboxylic acid (1,2,3,4-tetrahydro-naphthalen-1-yl)-amide]"
